Legend:
Format in all cases: cell-based
[1] = test system: chicken Opn4-1 L207^5.42F mutant; test: GsX GloSensor assay with Gsα/q11; settings: 16.7 μM AA92593, COS-1 cells
Excerpt: (§1) Similar to human and mouse melanopsins (Fig. 5, F and H, I, M, and N), the introduction of a Phe residue at position 207^5.42 in Xenopus Opn4x and Chicken Opn4-1 increased their susceptibility of the melanopsins for AA92593 by ∼53% and ∼37%, respectively, although the substitutions reduced light-dependent cAMP responses by the melanopsins (Fig. 6, C and F, G and H). […]
(§2) For GloSensor assay, opsins, GloSensor assay sensor (coded by pGlo-22F), and NanoBiT-tagged G proteins were transiently expressed in COS-1 cells (kindly provided from Dr David Farrens, Oregon Health and Science University) using PEI as described previously ([24], [52]). […] For GFP-fluorescence microscopy, a 35-mm cell culture dish (IWAKI) was transfected with 2 μg melanopsin-GFP plasmid and 8 μg PEI in 400 μl Opti-mem and 1.2 ml D-MEM. […]
(§3) The transfected COS-1 cells were incubated at 37 °C, 5% CO2 for 2 days, and the medium was aspirated and exchanged with 50 μl of HBSS (145 mM NaCl, 10 mM D-glucose, 5 mM KCl, 1 mM MgCl2, 1.7 mM CaCl2, 1.5 mM NaHCO3, 10 mM Hepes, pH 7.4), containing 33.3, 20, 10, 2, 0.2, 0.02, 0.002, or 0 μM AA92593, 0.5% dimetyl sulfoxide (DMSO), and 4% (vol/vol) GloSensor cAMP reagent stock solution. […] Then, the cells were incubated at room temperature for 1 h, and luminescence changes were monitored. […] Luminescence was measured using GM-2000 or GM-3510 microplate reader (Promega). […]

[2] = test system: Xenopus Opn4x L207^5.42F mutant; test: GsX GloSensor assay with Gsα/q11; settings: 16.7 μM AA92593, COS-1 cells
Excerpt: as §1, §2, §3

[3] = target: T1, mouse melanopsin F94^2.61C/S188^ECL2T/S269^6.52A mutant (Mus musculus, UniProt Q9QXZ9, F126C/S221T/S310A); test: NanoBiT Gq dissociation assay; settings: 1.67 and 16.7 μM AA92593; COS-1 cells
T1 construct: expressed in transfected cells; host or cells: COS-1
T1 sequence (Q9QXZ9 1-381 F126C/S221T/S310A): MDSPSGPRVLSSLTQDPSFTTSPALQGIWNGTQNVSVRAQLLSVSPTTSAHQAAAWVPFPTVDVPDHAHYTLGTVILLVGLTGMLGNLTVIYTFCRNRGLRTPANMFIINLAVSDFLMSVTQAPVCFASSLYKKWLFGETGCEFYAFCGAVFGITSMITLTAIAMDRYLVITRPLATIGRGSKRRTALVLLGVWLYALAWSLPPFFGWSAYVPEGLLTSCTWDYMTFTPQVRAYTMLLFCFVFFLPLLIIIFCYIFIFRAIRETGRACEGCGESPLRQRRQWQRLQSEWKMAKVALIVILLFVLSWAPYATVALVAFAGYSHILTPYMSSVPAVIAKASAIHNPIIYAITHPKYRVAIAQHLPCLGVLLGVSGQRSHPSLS
Excerpt: As described above, we have assessed the inhibitory effect of AA92593 using the GsX GloSensor assay. To confirm whether an antagonistic effect could be observed in another experimental system, we used the NanoBiT G protein dissociation assay ([23]). In this assay, Gq activation (dissociation) is detected as a decrease in NanoLuc luminescence from the Lg-BiT fragment inserted with Gqα and the Sm-BiT fragment fused with Gβγ (see “Experimental procedures”) ([23], [24]). If an antagonistic effect is observed in the NanoBiT assay, the light-dependent decrease in luminescence (Gq dissociation) by melanopsin would be reduced in the presence of AA92593. […]
as §2
The transfected COS-1 cells were incubated at 37 °C, 5% CO2 for 1 day, and the medium was aspirated, followed by the addition of 50 μl of HBSS containing 33.3, 3.33, or 0 μM AA92593, 0.5% DMSO, and 10 μM coelenterazine h (Wako). […] Luminescence was measured using GM-2000 or GM-3510 microplate reader (Promega). […]

COc1ccc(S(=O)(=O)N2CCCCC2)cc1C [AA92593]
increase in susceptibility for AA92593 vs WT [1]: ~37% | increase in susceptibility for AA92593 vs WT [2]: ~53% | antagonistic effect on Gq activation compared to WT [3]: similarly reduced
